Laboratory results: patent US20240254115A1 (ACONDICIONAMIENTO TARRASENSE, priority 2021, published 2024)

What was measured:
[1] = biological target: T1, human σ2/TMEM97 receptor (Homo sapiens, UniProt Q5BJF2); assay: Binding assay to human σ2/TMEM97 receptor; details: transfected HEK-293 membranes, 10 nM [3H]-DTG, 25° C. 120 minutes; + may also stand for 1-50% inhibition at 1 or 10 μM; read-out: Binding σ-2 Ki
T1 construct: expressed in transfected cells; host or cells: HEK-293
Method in brief: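 Membranes from transfected HEK-293 cells (15 µg) were incubated with 10 nM [3H]-DTG in 50 mM Tris-HCl pH 8.0 for 120 min at 25 °C, with 10 µM haloperidol defining non-specific binding. Filtration and scintillation counting followed. Compounds tested as % inhibition at 1 or 10 µM, or at five concentrations for Ki.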

[2] = biological target: T2, human σ1 receptor (Homo sapiens, UniProt Q99720); assay: Human σ1 receptor radioligand assay; details: transfected HEK-293 membranes, 5 nM [3H](+)-pentazocine, 37° C. 120 minutes; + may also stand for 1-50% inhibition at 1 or 10 μM; read-out: Binding σ-1 Ki
T2 construct: expressed in transfected cells; host or cells: HEK-293
Method in brief: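 Ki was derived from five test concentrations, or % inhibition was measured at a single 1 or 10 μM dose, against 5 nM [3H](+)-pentazocine. Incubation was 120 min at 37° C in 50 mM Tris-HCl pH 8 with 7 μg HEK-293 membranes, and 10 μM haloperidol set non-specific binding. Bound radioactivity was counted after filtration.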

[3] = biological target: sigma-2 (σ2) site (Homo sapiens, UniProt Q5BJF2); details: background statement; cited from earlier work
[4] = tested on: spared nerve injury (SNI) mice; details: SNI mice model of neuropathic pain; cited from earlier work

T2 sequence (Q99720 whole entry): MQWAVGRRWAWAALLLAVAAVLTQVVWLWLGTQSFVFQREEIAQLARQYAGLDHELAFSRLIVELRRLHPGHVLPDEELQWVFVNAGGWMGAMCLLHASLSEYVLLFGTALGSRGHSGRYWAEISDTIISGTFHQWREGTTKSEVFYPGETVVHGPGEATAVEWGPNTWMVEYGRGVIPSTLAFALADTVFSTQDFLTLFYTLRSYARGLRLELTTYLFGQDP
T1 sequence (Q5BJF2 whole entry): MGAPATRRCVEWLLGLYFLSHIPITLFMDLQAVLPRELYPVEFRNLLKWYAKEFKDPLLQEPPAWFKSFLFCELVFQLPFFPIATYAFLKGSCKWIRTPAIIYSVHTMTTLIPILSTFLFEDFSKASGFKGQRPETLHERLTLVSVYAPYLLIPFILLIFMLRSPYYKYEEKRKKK
sigma-2 (σ2) site, sequence (Q5BJF2 whole entry): as above

Compound	Ki [1] [nM]	Ki [2] [nM]	affinity for the sigma-2 (σ2) site [3]	mechanical hypersensitivity [4]
N#Cc1cc(CN2CCC3(CC2)CCN(S(=O)(=O)c2ccc(N4CCOC4=O)nc2)C3)ccc1F [Example 165, 2-Fluoro-5-((2-((6-(2-oxooxazolidin-3-yl)pyridin-3-yl)sulfonyl)-2,8-diazaspiro[4.5]decan-8-yl)methyl)benzonitrile]	100 to 500	> 1000		
O=C1OCCN1c1ccc(S(=O)(=O)N2CCC3(CCN(Cc4ccccc4F)CC3)CC2)cn1 [Example 166, 3-(5-((9-(2-Fluorobenzyl)-3,9-diazaspiro[5.5]undecan-3-yl)sulfonyl)pyridin-2-yl)oxazolidin-2-one]	< 100	500 to 1000		
CN(Cc1ccccc1)[C@H]1CC[C@H](NS(=O)(=O)c2ccc(N3CCOC3=O)nc2)CC1 [Example 167, N-((1 r,4r)-4-(Benzyl(methyl)amino)cyclohexyl)-6-(2-oxooxazolidin-3-yl)pyridine-3-sulfonamide]	100 to 500	> 1000		
CN(CCC(C)(C)C)C1CCN(S(=O)(=O)c2ccc(N3CCC(F)(F)CC3)nc2)CC1 [Example 168, 1-((6-(4,4-Difluoropiperidin-1-yl)pyridin-3-yl)sulfonyl)-N-(3,3-dimethylbutyl)-N-methylpiperidin-4-amine]	< 100	< 100		
CN(CC1CCOCC1)C1CCN(S(=O)(=O)c2ccc(N3CCC(F)(F)CC3)nc2)CC1 [Example 169, 1-((6-(4,4-Difluoropiperidin-1-yl)pyridin-3-yl)sulfonyl)-N-methyl-N-((tetrahydro-2H-pyran-4-yl)methyl)piperidin-4-amine]	< 100	100 to 500		
O=S(=O)(c1ccc(N2CCC(F)(F)CC2)nc1)N1CCC(NCc2ccccc2)CC1 [Example 170]	< 100	> 1000		
CN(Cc1ccc(C#N)cc1F)C1CCN(S(=O)(=O)c2ccc(N3CCC(F)(F)CC3)nc2)CC1 [Example 171, 4-(((1-((6-(4,4-Difluoropiperidin-1-yl)pyridin-3-yl)sulfonyl)piperidin-4-yl)(methyl)amino)methyl)-3-fluorobenzonitrile]	< 100	> 1000		
CN(Cc1ccccc1F)C1CCN(S(=O)(=O)c2ccc(N3CCC(F)(F)CC3)nc2)CC1 [Example 172, 1-((6-(4,4-Difluoropiperidin-1-yl)pyridin-3-yl)sulfonyl)-N-(2-fluorobenzyl)-N-methylpiperidin-4-amine]	< 100	< 100		
CN(Cc1ccc(C#N)c(F)c1)C1CCN(S(=O)(=O)c2ccc(N3CCC(F)(F)CC3)nc2)CC1 [Example 173, 4-(((1-((6-(4,4-Difluoropiperidin-1-yl)pyridin-3-yl)sulfonyl)piperidin-4-yl)(methyl)amino)methyl)-2-fluorobenzonitrile]	< 100	> 1000		
CN(Cc1cc(F)ccc1F)C1CCN(S(=O)(=O)c2ccc(N3CCC(F)(F)CC3)nc2)CC1 [Example 174, N-(2,5-Difluorobenzyl)-1-((6-(4,4-difluoropiperidin-1-yl)pyridin-3-yl)sulfonyl)-N-methylpiperidin-4-amine]	100 to 500	100 to 500		
CN(Cc1ccccc1)[C@H]1CC[C@H](NS(=O)(=O)c2ccc(N3CCC(F)(F)CC3)nc2)CC1 [Example 175, N-((1r,4r)-4-(Benzyl(methyl)amino)cyclohexyl)-6-(4,4-difluoropiperidin-1-yl)pyridine-3-sulfonamide]	< 100	100 to 500		
CN(Cc1ccccc1)[C@H]1CC[C@H](NS(=O)(=O)c2ccc(N3CCC4(CCCO4)CC3)nc2)CC1 [Example 176, N-((1r,4r)-4-(Benzyl(meth-yl)amino)cyclohexyl)-6-(1-oxa-8-azaspiro[4.5]decan-8-yl)pyridine-3-sulfonamide]	< 100	> 1000		
CN(CC1CCOCC1)[C@H]1CC[C@H](NS(=O)(=O)c2ccc(N3CCC4(CCCO4)CC3)nc2)CC1 [Example 177, N-((1r,4r)-4-(Methyl((tetrahydro-2H-pyran-4-yl)methyl)amino)cyclohexyl)-6-(1-oxa-8-azaspiro[4.5]decan-8-yl)pyridine-3-sulfonamide]	< 100	> 1000		
CN(Cc1ccccc1F)[C@H]1CC[C@H](NS(=O)(=O)c2ccc(N3CCC4(CCCO4)CC3)nc2)CC1 [Example 178, N-((1r,4r)-4-((2-Fluorobenz-yl)(methyl)amino)cyclohexyl)-6-(1-oxa-8-azaspiro[4.5]decan-8-yl)pyridine-3-sulfonamide]	< 100	> 1000		
CN(Cc1cc(F)ccc1F)[C@H]1CC[C@H](NS(=O)(=O)c2ccc(N3CCC4(CCOC4)CC3)nc2)CC1 [Example 179, N-((1r,4r)-4-((2,5-Difluoro-benzyl)(methyl)amino)cyclohexyl)-6-(2-oxa-8-azaspiro[4.5]decan-8-yl)pyridine-3-sulfonamide]	< 100	> 1000		
CN(Cc1ccc(F)c(F)c1)[C@H]1CC[C@H](NS(=O)(=O)c2ccc(N3CCC4(CCOC4)CC3)nc2)CC1 [Example 180, N-((1r,4r)-4-((3,4-Difluoro-benzyl)(methyl)amino)cyclohexyl)-6-(2-oxa-8-azaspiro[4.5]decan-8-yl)pyridine-3-sulfonamide]	< 100	> 1000		
CN(CCC(C)(C)C)[C@H]1CC[C@H](NS(=O)(=O)c2ccc(N3CCC4(CCOC4)CC3)nc2)CC1 [Example 181, N-((1r,4r)-4-((3,3-Dimethylbut-yl)(methyl)amino)cyclohexyl)-6-(2-oxa-8-azaspiro[4.5]decan-8-yl)pyridine-3-sulfonamide]	< 100	500 to 1000		
CN(CC(C)(C)C)[C@H]1CC[C@H](NS(=O)(=O)c2ccc(N3CCC4(CCOC4)CC3)nc2)CC1 [Example 182, N-((1r,4r)-4-(Methyl(neopentyl)a-mino)cyclohexyl)-6-(2-oxa-8-azaspiro[4.5]decan-8-yl)pyridine-3-sulfonamide]	500 to 1000	> 1000		
CN(CC1CCOCC1)[C@H]1CC[C@H](NS(=O)(=O)c2ccc(N3CCC4(CCOC4)CC3)nc2)CC1 [Example 183, N-((1r,4r)-4-(Methyl((tetrahydro-2H-pyran-4-yl)methyl)amino)cyclohexyl)-6-(2-oxa-8-azaspiro[4.5]decan-8-yl)pyridine-3-sulfonamide]	500 to 1000	500 to 1000		
(+)-SKF-10047			micromolar affinity	
UKH-1114				relieved mechanical hypersensitivity
